Data: PubChem BioAssay (NCI)
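Compound exposure: 48 hours, 5 concentrations, 96-well plates. TGI: concentration producing complete growth inhibition.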

Key:
Experiment in all cases: NCI tumour cell line growth inhibition, 48 h
[1] = system: 786-0 renal
[2] = system: A549 NSCLC
[3] = system: ACHN renal
[4] = system: CCRF-CEM leukemia
[5] = system: COLO 205 colon
[6] = system: DLD-1 colon
[7] = system: DMS 114 small cell lung
[8] = system: DMS 273 small cell lung
[9] = system: EKVX NSCLC
[10] = system: HCC-2998 colon
[11] = system: HCT-116 colon
[12] = system: HCT-15 colon
[13] = system: HL-60(TB) leukemia
[14] = system: HOP-18 NSCLC
[15] = system: HOP-62 NSCLC
[16] = system: HOP-92 NSCLC
[17] = system: HT29 colon
[18] = system: IGROV1 ovarian
[19] = system: K-562 leukemia
[20] = system: KM12 colon
[21] = system: KM20L2 colon
[22] = system: LOX IMVI melanoma
[23] = system: LXFL 529 NSCLC
[24] = system: M14 melanoma
[25] = system: M19-MEL melanoma
[26] = system: MALME-3M melanoma
[27] = system: MOLT-4 leukemia
[28] = system: NCI-H226 lung
[29] = system: NCI-H23 lung
[30] = system: NCI-H460 lung
[31] = system: NCI-H522 lung
[32] = system: OVCAR-3 ovarian
[33] = system: OVCAR-4 ovarian
[34] = system: OVCAR-5 ovarian
[35] = system: OVCAR-8 ovarian
[36] = system: RPMI-8226 leukemia
[37] = system: RXF 393 renal
[38] = system: RXF-631 renal
[39] = system: SF-268 CNS
[40] = system: SF-295 CNS
[41] = system: SF-539 CNS
[42] = system: SK-MEL-2 melanoma
[43] = system: SK-MEL-28 melanoma
[44] = system: SK-MEL-5 melanoma
[45] = system: SK-OV-3 ovarian
[46] = system: SN12C renal
[47] = system: SNB-19 CNS
[48] = system: SNB-75 CNS
[49] = system: SR leukemia
[50] = system: SW-620 colon
[51] = system: TK-10 renal
[52] = system: U251 CNS
[53] = system: UACC-257 melanoma
[54] = system: UACC-62 melanoma
[55] = system: UO-31 renal
[56] = system: XF 498 CNS
[57] = system: A498 renal
[58] = system: SNB-78 CNS
[59] = system: CAKI-1 renal

SMILES: CC1=CP(=O)(OC(C)C)C=C(C)C1=C(Cl)Cl (stereo not given)
- TGI [1]: > 100 µM
- TGI [2]: 97.8 µM
- TGI [3]: > 100 µM
- TGI [4]: > 100 µM
- TGI [5]: 35 µM
- TGI [6]: > 100 µM
- TGI [7]: > 100 µM
- TGI [8]: > 100 µM
- TGI [9]: > 100 µM
- TGI [10]: > 100 µM
- TGI [11]: 70.5 µM
- TGI [12]: > 100 µM
- TGI [13]: > 100 µM
- TGI [14]: > 100 µM
- TGI [15]: > 100 µM
- TGI [16]: 54.6 µM
- TGI [17]: > 100 µM
- TGI [18]: > 100 µM
- TGI [19]: > 100 µM
- TGI [20]: 53.7 µM
- TGI [21]: > 100 µM
- TGI [22]: > 100 µM
- TGI [23]: > 100 µM
- TGI [24]: > 100 µM
- TGI [25]: > 100 µM
- TGI [26]: > 100 µM
- TGI [27]: > 100 µM
- TGI [28]: 87.2 µM
- TGI [29]: > 100 µM
- TGI [30]: > 100 µM
- TGI [31]: 9.03 µM
- TGI [32]: > 100 µM
- TGI [33]: > 100 µM
- TGI [34]: > 100 µM
- TGI [35]: > 100 µM
- TGI [36]: > 100 µM
- TGI [37]: > 100 µM
- TGI [38]: > 100 µM
- TGI [39]: > 100 µM
- TGI [40]: > 100 µM
- TGI [41]: > 100 µM
- TGI [42]: 59 µM
- TGI [43]: > 100 µM
- TGI [44]: > 100 µM
- TGI [45]: 33.4 µM
- TGI [46]: > 100 µM
- TGI [47]: > 100 µM
- TGI [48]: > 100 µM
- TGI [49]: > 100 µM
- TGI [50]: > 100 µM
- TGI [51]: > 100 µM
- TGI [52]: > 100 µM
- TGI [53]: > 100 µM
- TGI [54]: > 100 µM
- TGI [55]: 27.2 µM
- TGI [56]: > 100 µM

SMILES: O=S(O)CCCCCSSc1ccc(Cl)cc1
- TGI [57]: 36.6 µM
- TGI [4]: > 100 µM
- TGI [6]: 67.5 µM
- TGI [9]: > 100 µM
- TGI [10]: 73.7 µM
- TGI [11]: 77.2 µM
- TGI [13]: > 100 µM
- TGI [15]: 41.3 µM
- TGI [17]: 70.5 µM
- TGI [19]: > 100 µM
- TGI [20]: 60.7 µM
- TGI [22]: 29.9 µM
- TGI [23]: 27 µM
- TGI [24]: 71.5 µM
- TGI [25]: 91 µM
- TGI [26]: 89.9 µM
- TGI [29]: 44.4 µM
- TGI [30]: > 100 µM
- TGI [31]: 28.5 µM
- TGI [32]: 31.3 µM
- TGI [33]: > 100 µM
- TGI [34]: 50.2 µM
- TGI [37]: 31.4 µM
- TGI [38]: 46.8 µM
- TGI [39]: 23.5 µM
- TGI [41]: 29.5 µM
- TGI [42]: 34.7 µM
- TGI [43]: 66.6 µM
- TGI [45]: > 100 µM
- TGI [46]: 31.1 µM
- TGI [47]: 91.4 µM
- TGI [48]: 56.2 µM
- TGI [58]: 70.3 µM
- TGI [51]: 54.4 µM
- TGI [52]: 21.7 µM
- TGI [53]: 59.3 µM
- TGI [55]: 26.3 µM
- TGI [56]: 36 µM

SMILES: CCOC(=O)C1(C)C2=CC=C(O2)C(C)(C)C2=CC=C(O2)C(C)(C)C2=CC=C(O2)C(C)(C)C2=CC=C1O2
- TGI [1]: > 100 µM
- TGI [57]: > 100 µM
- TGI [2]: > 100 µM
- TGI [3]: > 100 µM
- TGI [59]: > 100 µM
- TGI [4]: > 100 µM
- TGI [5]: > 100 µM
- TGI [8]: > 100 µM
- TGI [9]: > 100 µM
- TGI [10]: > 100 µM
- TGI [11]: > 100 µM
- TGI [12]: > 100 µM
- TGI [13]: > 100 µM
- TGI [14]: > 100 µM
- TGI [15]: > 100 µM
- TGI [16]: > 100 µM
- TGI [17]: > 100 µM
- TGI [18]: > 100 µM
- TGI [19]: > 100 µM
- TGI [20]: > 100 µM
- TGI [21]: > 100 µM
- TGI [22]: > 100 µM
- TGI [23]: > 100 µM
- TGI [25]: > 100 µM
- TGI [26]: > 100 µM
- TGI [27]: > 100 µM
- TGI [28]: > 100 µM
- TGI [29]: > 100 µM
- TGI [30]: > 100 µM
- TGI [31]: > 100 µM
- TGI [33]: > 100 µM
- TGI [34]: > 100 µM
- TGI [35]: > 100 µM
- TGI [37]: > 100 µM
- TGI [38]: > 100 µM
- TGI [39]: > 100 µM
- TGI [40]: > 100 µM
- TGI [41]: > 100 µM
- TGI [42]: > 100 µM
- TGI [43]: > 100 µM
- TGI [45]: > 100 µM
- TGI [46]: > 100 µM
- TGI [47]: > 100 µM
- TGI [58]: > 100 µM
- TGI [49]: > 100 µM
- TGI [50]: > 100 µM
- TGI [51]: > 100 µM
- TGI [52]: > 100 µM
- TGI [53]: > 100 µM
- TGI [56]: > 100 µM

SMILES: CC(=O)NNc1nc(C)c(C(=O)/C=C/c2ccc(N(C)C)cc2)s1
- TGI [1]: > 100 µM
- TGI [57]: > 100 µM
- TGI [2]: > 100 µM
- TGI [3]: > 100 µM
- TGI [59]: > 100 µM
- TGI [4]: > 100 µM
- TGI [5]: > 100 µM
- TGI [6]: > 100 µM
- TGI [7]: > 100 µM
- TGI [8]: > 100 µM
- TGI [9]: > 100 µM
- TGI [10]: > 100 µM
- TGI [12]: > 100 µM
- TGI [13]: > 100 µM
- TGI [14]: > 100 µM
- TGI [15]: > 100 µM
- TGI [16]: > 100 µM
- TGI [17]: > 100 µM
- TGI [18]: > 100 µM
- TGI [19]: > 100 µM
- TGI [20]: > 100 µM
- TGI [21]: > 100 µM
- TGI [22]: > 100 µM
- TGI [26]: > 100 µM
- TGI [27]: > 100 µM
- TGI [28]: > 100 µM
- TGI [29]: > 100 µM
- TGI [30]: > 100 µM
- TGI [31]: > 100 µM
- TGI [32]: > 100 µM
- TGI [34]: > 100 µM
- TGI [35]: > 100 µM
- TGI [36]: > 100 µM
- TGI [37]: > 100 µM
- TGI [38]: > 100 µM
- TGI [39]: > 100 µM
- TGI [40]: > 100 µM
- TGI [41]: > 100 µM
- TGI [42]: > 100 µM
- TGI [43]: > 100 µM
- TGI [44]: > 100 µM
- TGI [45]: > 100 µM
- TGI [46]: > 100 µM
- TGI [48]: > 100 µM
- TGI [58]: > 100 µM
- TGI [50]: > 100 µM
- TGI [51]: > 100 µM
- TGI [52]: > 100 µM
- TGI [53]: > 100 µM
- TGI [54]: > 100 µM
- TGI [55]: > 100 µM
